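Cells were grown in 96-well plates and exposed to each compound for 48 hours at five concentrations; endpoints were interpolated linearly between bracketing concentrations, or set to the highest concentration if not reached. GI50 marks 50% less growth. TGI denotes the concentration required for complete inhibition of growth.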
Legend:
Assay in all cases: NCI-60 cell line screen, 48 h
[1] = tested on: A549 NSCLC
[2] = tested on: CCRF-CEM leukemia
[3] = tested on: RPMI-8226 leukemia
[4] = tested on: COLO 205 colon
[5] = tested on: IGROV1 ovarian
[6] = tested on: NCI-H23 lung
[7] = tested on: LOX IMVI melanoma
[8] = tested on: ACHN renal
[9] = tested on: SF-539 CNS
[10] = tested on: TK-10 renal
[11] = tested on: EKVX NSCLC
[12] = tested on: HCC-2998 colon
[13] = tested on: SN12C renal
[14] = tested on: KM12 colon
[15] = tested on: PC-3 prostate
[16] = tested on: CAKI-1 renal
[17] = tested on: HL-60(TB) leukemia
[18] = tested on: MDA-MB-435
[19] = tested on: HS 578T breast
[20] = tested on: SK-MEL-5 melanoma
[21] = tested on: OVCAR-8 ovarian
[22] = tested on: OVCAR-5 ovarian
[23] = tested on: MALME-3M melanoma
[24] = tested on: SK-MEL-28 melanoma
[25] = tested on: HOP-62 NSCLC
[26] = tested on: SW-620 colon
[27] = tested on: NCI/ADR-RES ovarian
[28] = tested on: NCI-H460 lung
[29] = tested on: SR leukemia
[30] = tested on: MDA-MB-231 breast
[31] = tested on: HCT-15 colon
[32] = tested on: BT-549 breast
[33] = tested on: 786-0 renal
[34] = tested on: T-47D breast
[35] = tested on: SNB-75 CNS
[36] = tested on: U251 CNS
[37] = tested on: UO-31 renal
[38] = tested on: M14 melanoma
[39] = tested on: HT29 colon
[40] = tested on: UACC-257 melanoma
[41] = tested on: SF-295 CNS
[42] = tested on: DU-145 prostate
[43] = tested on: SF-268 CNS
[44] = tested on: K-562 leukemia
[45] = tested on: SNB-19 CNS
[46] = tested on: RXF 393 renal
[47] = tested on: A498 renal
[48] = tested on: SK-OV-3 ovarian
[49] = tested on: OVCAR-4 ovarian
[50] = tested on: MCF7 breast
[51] = tested on: NCI-H522 lung
[52] = tested on: UACC-62 melanoma
[53] = tested on: HCT-116 colon
[54] = tested on: MOLT-4 leukemia
[55] = tested on: HOP-92 NSCLC
[56] = tested on: NCI-H226 lung
[57] = tested on: SK-MEL-2 melanoma

Molecule C#Cc1nc(/C=C/C(=O)c2nccn2C)cs1 has a GI50 [1] of 1.11 µM, a TGI [1] of 3.06 µM and a GI50 [2] of 0.149 µM. For the same molecule, the TGI [2] was 0.566 µM, the GI50 [3] was 0.205 µM and the TGI [3] was 0.894 µM. For the same molecule, the GI50 [4] was 0.815 µM, the TGI [4] was 1.73 µM and the GI50 [5] was 0.105 µM. It also gave a TGI [5] of 0.215 µM, a GI50 [6] of 0.798 µM and a TGI [6] of 1.72 µM. It also gave a GI50 [7] of 0.0229 µM, a TGI [7] of 0.0499 µM and a GI50 [8] of 0.291 µM. The TGI [8] was 0.794 µM, the GI50 [9] was 0.748 µM and the TGI [9] was 1.47 µM. For the same molecule, the GI50 [10] was 1.17 µM, the TGI [10] was 2.12 µM and the GI50 [11] was 0.964 µM. The TGI [11] was 1.96 µM, the GI50 [12] was 0.88 µM and the TGI [12] was 1.62 µM. It also gave a GI50 [13] of 0.797 µM, a TGI [13] of 1.7 µM and a GI50 [14] of 0.498 µM. For the same molecule, the TGI [14] was 1.2 µM, the GI50 [15] was 0.778 µM and the TGI [15] was 1.69 µM. It also gave a GI50 [16] of 0.735 µM, a TGI [16] of 1.48 µM and a GI50 [17] of 0.167 µM. The TGI [17] was 0.645 µM, the GI50 [18] was 0.976 µM and the TGI [18] was 2.82 µM. It also gave a GI50 [19] of 1.04 µM, a TGI [19] of 3.13 µM and a GI50 [20] of 1.04 µM. It also gave a TGI [20] of 2.32 µM, a GI50 [21] of 1.16 µM and a TGI [21] of 4.36 µM. The GI50 [22] was 0.859 µM, the TGI [22] was 1.6 µM and the GI50 [23] was 0.893 µM. It also gave a TGI [23] of 1.83 µM, a GI50 [24] of 0.915 µM and a TGI [24] of 2.04 µM. The GI50 [25] was 1.05 µM, the TGI [25] was 1.96 µM and the GI50 [26] was 0.607 µM. It also gave a TGI [26] of 1.4 µM, a GI50 [27] of 0.723 µM and a TGI [27] of 2.7 µM. The GI50 [28] was 0.898 µM, the TGI [28] was 2.1 µM and the GI50 [29] was 0.125 µM. The TGI [29] was 0.471 µM, the GI50 [30] was 0.708 µM and the TGI [30] was 1.5 µM. The GI50 [31] was 0.51 µM, the TGI [31] was 1.31 µM and the GI50 [32] was 0.815 µM. It also gave a TGI [32] of 1.53 µM, a GI50 [33] of 0.262 µM and a TGI [33] of 0.623 µM. The GI50 [34] was 0.229 µM, the TGI [34] was 1.38 µM and the GI50 [35] was 0.668 µM. It also gave a TGI [35] of 1.36 µM, a GI50 [36] of 0.775 µM and a TGI [36] of 1.54 µM. It also gave a GI50 [37] of 0.132 µM, a TGI [37] of 0.355 µM and a GI50 [38] of 0.845 µM. The TGI [38] was 1.98 µM, the GI50 [39] was 0.837 µM and the TGI [39] was 1.7 µM. The GI50 [40] was 0.732 µM, the TGI [40] was 1.61 µM and the GI50 [41] was 0.961 µM. It also gave a TGI [41] of 1.87 µM, a GI50 [42] of 0.583 µM and a TGI [42] of 1.28 µM. It also gave a GI50 [43] of 0.813 µM, a TGI [43] of 1.83 µM and a GI50 [44] of 0.377 µM. For the same molecule, the TGI [44] was 2.26 µM, the GI50 [45] was 0.812 µM and the TGI [45] was 1.55 µM. It also gave a GI50 [46] of 0.502 µM, a TGI [46] of 1.39 µM and a GI50 [47] of 0.78 µM. The TGI [47] was 1.52 µM, the GI50 [48] was 1.18 µM and the TGI [48] was 2.44 µM. It also gave a GI50 [49] of 1 µM, a TGI [49] of 2.34 µM and a GI50 [50] of 0.537 µM. It also gave a TGI [50] of 1.94 µM, a GI50 [51] of 0.566 µM and a TGI [51] of 1.37 µM. The GI50 [52] was 0.715 µM, the TGI [52] was 1.46 µM and the GI50 [53] was 0.456 µM. It also gave a TGI [53] of 1.22 µM, a GI50 [54] of 0.859 µM and a TGI [54] of 2.5 µM. It also gave a GI50 [55] of 1.05 µM, a TGI [55] of 1.88 µM and a GI50 [56] of 1.49 µM. The TGI [56] was 9.13 µM, the GI50 [57] was 0.909 µM and the TGI [57] was 2.06 µM.

From PubChem BioAssay (NCI)
